According to the supplement of paper PMC10627819:

Legend:
Assay in all cases: fitness (endpoint OD595 vs no drug) (fraction); higher = more growth
S. aureus DSM 20231 = system: S. aureus DSM 20231
Procedure, shortened: (§1)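 Fitness was defined as the optical density at the transition into stationary phase relative to the robust mean of no-drug control wells. Values were capped at 1. Cultures were started at OD595 0.01 in 384-well plates (30 µl, or 55 µl for S. pneumoniae) in TSB, LB Lennox or CY at 37 °C. OD595 was recorded every 30 min over 14 h, with the first reading subtracted as background.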

S. pneumoniae D39V = system: S. pneumoniae D39V
Procedure, shortened: as §1

B. subtilis 168 = system: B. subtilis 168
Procedure, shortened: as §1

S. aureus Newman = system: S. aureus Newman
Procedure, shortened: as §1

CC(=O)Oc1ccccc1C(=O)O [Acetylsalicylic acid] + N[C@@H]1CONC1=O [Cycloserine D]
S. aureus DSM 20231, first compound 250 µg/mL
Conditions | fitness
partner 0.375 µg/mL | 0.96
partner 0.75 µg/mL | 0.953
partner 1.5 µg/mL | 0.93

CC(=O)Oc1ccccc1C(=O)O [Acetylsalicylic acid] + O=C(N[C@H](CO)[C@H](O)c1ccc([N+](=O)[O-])cc1)C(Cl)Cl [Chloramphenicol]
fitness, S. aureus DSM 20231
Conditions | first compound 250 µg/mL | first compound 500 µg/mL | first compound 1000 µg/mL
partner 0.75 µg/mL | 0.688 | – | 0.307
partner 1.5 µg/mL | 0.498 | – | 0.225
partner 3 µg/mL | 0.136 | 0.098 | 0.0799

CC(=O)Oc1ccccc1C(=O)O [Acetylsalicylic acid] + CO/N=C(\C(=O)N[C@@H]1C(=O)N2C(C(=O)[O-])=C(C[N+]3(C)CCCC3)CS[C@H]12)c1csc(N)n1 [Cefepime]
fitness
Conditions | first compound 250 µg/mL | first compound 500 µg/mL | first compound 1000 µg/mL
S. aureus DSM 20231, partner 0.125 µg/mL | 0.856 | 0.712 | 0.624
S. aureus DSM 20231, partner 0.25 µg/mL | 0.83 | 0.683 | –
S. aureus DSM 20231, partner 0.5 µg/mL | 0.78 | 0.666 | 0.612
S. pneumoniae D39V, partner 0.007 µg/mL | 0.988 | ≥ 1 | 0.927
S. pneumoniae D39V, partner 0.0078 µg/mL | 0.992 | ≥ 1 | 0.915
S. pneumoniae D39V, partner 0.014 µg/mL | 0.99 | 0.995 | 0.969
S. pneumoniae D39V, partner 0.0155 µg/mL | ≥ 1 | ≥ 1 | 0.898
S. pneumoniae D39V, partner 0.028 µg/mL | 0.927 | 0.896 | 0.865
S. pneumoniae D39V, partner 0.031 µg/mL | 0.964 | ≥ 1 | 0.888

CC(=O)Oc1ccccc1C(=O)O [Acetylsalicylic acid] + CN[C@H](CC(C)C)C(=O)N[C@H]1C(=O)N[C@@H](CC(N)=O)C(=O)N[C@H]2C(=O)N[C@H]3C(=O)N[C@H](C(=O)N[C@H](C(=O)O)c4cc(O)cc(O)c4-c4cc3ccc4O)[C@H](O)c3ccc(c(Cl)c3)Oc3cc2cc(c3O[C@@H]2O[C@H](CO)[C@@H](O)[C@H](O)[C@H]2O[C@H]2C[C@](C)(N)[C@H](O)[C@H](C)O2)Oc2ccc(cc2Cl)[C@H]1O [Vancomycin]
fitness
Conditions | first compound 250 µg/mL | first compound 500 µg/mL | first compound 1000 µg/mL
S. aureus DSM 20231, partner 0.1875 µg/mL | 0.871 | 0.79 | 0.592
S. aureus DSM 20231, partner 0.375 µg/mL | 0.953 | – | 0.562
S. aureus DSM 20231, partner 0.75 µg/mL | 0.947 | – | –
S. pneumoniae D39V, partner 0.03125 µg/mL | 0.956 | 0.934 | 0.839
S. pneumoniae D39V, partner 0.0625 µg/mL | 0.894 | 0.885 | 0.826
S. pneumoniae D39V, partner 0.125 µg/mL | 0.927 | 0.917 | 0.84
S. pneumoniae D39V, partner 0.25 µg/mL | 0.984 | 0.961 | 0.83
S. pneumoniae D39V, partner 0.5 µg/mL | 0.105 | 0.0715 | 0.0849

O=C(O)c1cn(C2CC2)c2cc(N3CCNCC3)c(F)cc2c1=O [Ciprofloxacin] + CO/N=C(\C(=O)N[C@@H]1C(=O)N2C(C(=O)O)=C(COC(C)=O)CS[C@H]12)c1csc(N)n1 [Cefotaxime]
fitness, one replicate
Conditions | partner 0.00775 µg/mL | partner 0.0155 µg/mL | partner 0.031 µg/mL | partner 0.039 µg/mL | partner 0.0625 µg/mL | partner 0.125 µg/mL | partner 0.25 µg/mL | partner 0.312 µg/mL
B. subtilis 168, first compound 0.0098 µg/mL | 0.764 | 0.594 | 0.347 | – | 0.475 | 0.333 | 0.263 | –
B. subtilis 168, first compound 0.0195 µg/mL | 0.546 | 0.205 | 0.063 | – | 0.231 | 0.129 | 0.0436 | –
B. subtilis 168, first compound 0.039 µg/mL | 0.0504 | 0.0283 | 0.045 | – | 0.0338 | 0.0283 | 0.0507 | –
S. aureus Newman, first compound 0.0375 µg/mL | – | – | – | 0.633 | – | – | – | 0.217
S. aureus Newman, first compound 0.075 µg/mL | – | – | – | 0.691 | – | – | – | 0.0389
S. aureus Newman, first compound 0.15 µg/mL | – | – | – | 0.0625 | – | – | – | 0.0381

Conditions | fitness
B. subtilis 168, first compound 0.0098 µg/mL, partner 0.5 µg/mL | 0.141
B. subtilis 168, first compound 0.0098 µg/mL, partner 1 µg/mL | 0.0495
B. subtilis 168, first compound 0.0098 µg/mL, partner 2 µg/mL | 0.0625
B. subtilis 168, first compound 0.0195 µg/mL, partner 0.5 µg/mL | 0.0302
B. subtilis 168, first compound 0.0195 µg/mL, partner 1 µg/mL | 0.0272
B. subtilis 168, first compound 0.0195 µg/mL, partner 2 µg/mL | 0.0392
B. subtilis 168, first compound 0.039 µg/mL, partner 0.5 µg/mL | 0.0615
B. subtilis 168, first compound 0.039 µg/mL, partner 1 µg/mL | 0.0416
B. subtilis 168, first compound 0.039 µg/mL, partner 2 µg/mL | 0.0569
S. aureus Newman, first compound 0.0375 µg/mL, partner 0.078 µg/mL | 0.578
S. aureus Newman, first compound 0.0375 µg/mL, partner 0.156 µg/mL | 0.489
S. aureus Newman, first compound 0.0375 µg/mL, partner 0.625 µg/mL | 0.0622
S. aureus Newman, first compound 0.0375 µg/mL, partner 1.25 µg/mL | 0.0267
S. aureus Newman, first compound 0.0375 µg/mL, partner 2.5 µg/mL | 0.0312
S. aureus Newman, first compound 0.075 µg/mL, partner 0.078 µg/mL | 0.518
S. aureus Newman, first compound 0.075 µg/mL, partner 0.625 µg/mL | 0.0809
S. aureus Newman, first compound 0.075 µg/mL, partner 1.25 µg/mL | 0.0731
S. aureus Newman, first compound 0.075 µg/mL, partner 2.5 µg/mL | 0.0893
S. aureus Newman, first compound 0.15 µg/mL, partner 0.078 µg/mL | 0.0493
S. aureus Newman, first compound 0.15 µg/mL, partner 0.156 µg/mL | 0.0219
S. aureus Newman, first compound 0.15 µg/mL, partner 0.625 µg/mL | 0.0244
S. aureus Newman, first compound 0.15 µg/mL, partner 1.25 µg/mL | 0.0309
S. aureus Newman, first compound 0.15 µg/mL, partner 2.5 µg/mL | 0.0543
S. pneumoniae D39V, first compound 0.125 µg/mL, partner 0.0018 µg/mL | 0.992
S. pneumoniae D39V, first compound 0.125 µg/mL, partner 0.0035 µg/mL | 0.95
S. pneumoniae D39V, first compound 0.25 µg/mL, partner 0.0018 µg/mL | 0.919
S. pneumoniae D39V, first compound 0.25 µg/mL, partner 0.0035 µg/mL | 0.962
S. pneumoniae D39V, first compound 0.25 µg/mL, partner 0.007 µg/mL | 0.873
S. pneumoniae D39V, first compound 0.5 µg/mL, partner 0.0018 µg/mL | 0.809
S. pneumoniae D39V, first compound 0.5 µg/mL, partner 0.0035 µg/mL | 0.803

C[C@@H]1O[C@@H]1P(=O)(O)O [Fosfomycin] + CC1=C(C(=O)O)N2C(=O)[C@@H](NC(=O)[C@H](N)c3ccccc3)[C@H]2SC1 [Cephalexin]
Conditions | fitness
B. subtilis 168, first compound 1.562 µg/mL, partner 0.125 µg/mL | 0.66
B. subtilis 168, first compound 1.562 µg/mL, partner 0.25 µg/mL | 0.776
B. subtilis 168, first compound 1.562 µg/mL, partner 0.5 µg/mL | 0.774
B. subtilis 168, first compound 3.124 µg/mL, partner 0.125 µg/mL | 0.573
B. subtilis 168, first compound 3.124 µg/mL, partner 0.25 µg/mL | 0.656
B. subtilis 168, first compound 3.124 µg/mL, partner 0.5 µg/mL | 0.611
B. subtilis 168, first compound 6.248 µg/mL, partner 0.125 µg/mL | 0.404
B. subtilis 168, first compound 6.248 µg/mL, partner 0.25 µg/mL | 0.396
B. subtilis 168, first compound 6.248 µg/mL, partner 0.5 µg/mL | 0.373
S. aureus Newman, first compound 0.781 µg/mL, partner 0.25 µg/mL | 0.677
S. aureus Newman, first compound 0.781 µg/mL, partner 0.5 µg/mL | 0.662
S. aureus Newman, first compound 0.781 µg/mL, partner 1 µg/mL | 0.685
S. aureus Newman, first compound 1.562 µg/mL, partner 0.25 µg/mL | 0.604
S. aureus Newman, first compound 1.562 µg/mL, partner 0.5 µg/mL | 0.561
S. aureus Newman, first compound 1.562 µg/mL, partner 1 µg/mL | 0.616
S. aureus Newman, first compound 3.124 µg/mL, partner 0.25 µg/mL | 0.309
S. aureus Newman, first compound 3.124 µg/mL, partner 0.5 µg/mL | 0.286
S. aureus Newman, first compound 3.124 µg/mL, partner 1 µg/mL | 0.284
S. pneumoniae D39V, first compound 1.25 µg/mL, partner 1 µg/mL | 0.768
S. pneumoniae D39V, first compound 1.25 µg/mL, partner 2 µg/mL | 0.212
S. pneumoniae D39V, first compound 1.25 µg/mL, partner 4 µg/mL | 0.0339
S. pneumoniae D39V, first compound 2.5 µg/mL, partner 2 µg/mL | 0.191
S. pneumoniae D39V, first compound 2.5 µg/mL, partner 4 µg/mL | 0.0402
S. pneumoniae D39V, first compound 5 µg/mL, partner 2 µg/mL | 0.0752
S. pneumoniae D39V, first compound 5 µg/mL, partner 4 µg/mL | 0.0499

fitness, one replicate
Conditions | first compound 1.25 µg/mL | first compound 1.562 µg/mL | first compound 2.5 µg/mL | first compound 3.124 µg/mL | first compound 5 µg/mL | first compound 6.248 µg/mL
B. subtilis 168, partner 1 µg/mL | – | 0.797 | – | 0.673 | – | 0.542
S. pneumoniae D39V, partner 0.125 µg/mL | 0.937 | – | 0.879 | – | 0.713 | –
S. pneumoniae D39V, partner 0.25 µg/mL | 0.933 | – | 0.847 | – | 0.762 | –
S. pneumoniae D39V, partner 0.5 µg/mL | 0.899 | – | 0.847 | – | 0.751 | –

O=C(O)c1cn(C2CC2)c2cc(N3CCNCC3)c(F)cc2c1=O [Ciprofloxacin] + CO/N=C(\C(=O)N[C@@H]1C(=O)N2C(C(=O)O)=C(COC(N)=O)CS[C@H]12)c1ccco1 [Cefuroxime]
fitness, B. subtilis 168
Conditions | first compound 0.0098 µg/mL | first compound 0.0195 µg/mL | first compound 0.039 µg/mL
partner 0.04875 µg/mL | 0.632 | 0.391 | 0.042
partner 0.0975 µg/mL | – | 0.212 | 0.0421
partner 0.195 µg/mL | 0.317 | 0.0634 | 0.0359

fitness, one replicate
Conditions | partner 0.04875 µg/mL | partner 0.0975 µg/mL | partner 0.195 µg/mL | partner 0.39 µg/mL | partner 0.78 µg/mL | partner 1.562 µg/mL | partner 3.125 µg/mL | partner 6.25 µg/mL
B. subtilis 168, first compound 0.0098 µg/mL | – | – | – | 0.266 | 0.224 | 0.24 | 0.179 | 0.0609
B. subtilis 168, first compound 0.0195 µg/mL | – | – | – | 0.0291 | 0.0398 | 0.0343 | 0.0254 | 0.0167
B. subtilis 168, first compound 0.039 µg/mL | – | – | – | 0.0168 | 0.0177 | 0.0261 | 0.0302 | 0.0254
S. aureus Newman, first compound 0.078 µg/mL | 0.554 | 0.441 | 0.469 | – | – | – | – | –
S. aureus Newman, first compound 0.156 µg/mL | 0.0634 | 0.0619 | 0.0412 | – | – | – | – | –
S. aureus Newman, first compound 0.312 µg/mL | 0.0573 | 0.0666 | 0.061 | – | – | – | – | –
